# Measurements as given in paper PMC4632738, “New Peptide-Conjugated Chlorin-Type Photosensitizer Targeting Neuropilin-1 for Anti-Vascular Targeted Photodynamic Therapy” (International Journal of Molecular Sciences, 2015).
# “Also recorded” adds a separate entry of the source. Where two headings read alike, the source gives them in different places. Ends that are not written are not given here. TPC = not defined here; Ahx = NCCCCCC(=O)O
# What was measured:
# [1] = Shake flask octanol/PBS pH 7.4 distribution coefficient; assay type: physicochemical; details: expressed as log, mean ± S.D.
# Protocol: The distribution coefficient values at pH 7.4 from the shake flask method and the retention time from HPLC analysis of TPC and the conjugates are summarized in Table 2. The TPC-spacer-peptides were analyzed by HPLC (column Altech, Apollo C18 reverse-phase (5 μm; 250 mm × 4.6 mm)) on a Shimadzu LC-10ATvp, monitored by a UV/Visible detector at 214 and 415 nm on a SPD-10A UV-Visible detector. […] The log DpH7.4 value for TPC–Ahx–ATWLPPR obtained (2.61 ± 0.2) was also consistent with data published by Tirand et al., confirming the hydrophobic characteristic of TPC and the TPC–Ahx–ATWLPPR conjugate.
# Hydrophilic and hydrophobic characteristics were also evaluated using the “shake flask” method to determine the solubility of the free TPC and the conjugates. […] The distribution coefficient, DpH7.4 was then expressed as log (mean ± S.D., n = 6).
# [2] = Photophysical characterization (UV-Vis absorption, fluorescence and singlet oxygen quantum yields); assay type: physicochemical; details: ethanol, room temperature; for Molar Extinction Coefficient Soret ε415: 415 nm; for Molar Extinction Coefficient QIV ε516: 516 nm; for Molar Extinction Coefficient QIII ε543: 543 nm; for Molar Extinction Coefficient QII ε598: 598 nm; for Molar Extinction Coefficient QI ε650: 650 nm; for Fluorescence quantum yield Φf: ±0.02, reference TPP in toluene; for Singlet oxygen quantum yield Φ∆: ±0.05, reference rose Bengal in ethanol
# From the text: Table 3 summarizes the molar extinction coefficient values of the six conjugates as well as their fluorescence and singlet oxygen quantum yield values.
# The photophysical properties of TPC and the TPC–peptide conjugates were characterized using three different techniques; UV/visible absorption (Perkin Elmer Lambda 2 UV-Vis spectrophotometer, Courtaboeuf, France), fluorescence emission (SPEX Fluorolog-3 spectrofluorometer, Jobin Yvon, Longjumeau, Paris, France) and singlet oxygen emission. For UV-Vis measurements, the samples of TPC and the six conjugates were diluted in ethanol and their spectra were determined in the range of 300 to 800 nm. For fluorescence emission spectra, samples with an absorption at 415 nm equal to 0.200 (±0.02) were prepared. Solvent refractive index and absorption efficiencies of fluorescence quantum yields (Φf) were calculated based on a TPP solution in toluene as a fluorescence standard reference (Φf(ref) = 0.11) as described by Equation (2): (2) ϕf=ϕf(ref)×I/Iref×Aref/A×(n/nref)^2 where A and Aref correspond to the absorbance at 415 nm of the sample and TPP, respectively, while I and Iref are the areas under the fluorescence spectra between 600 and 750 nm of the sample and TPP, respectively. n and nref are the refractive indices of solvents used for the sample and TPP, respectively (n/nethanol = 1.361, nref/ntoluene = 1.496).
# Singlet oxygen emission spectra were recorded on SPEX 1680 with […] double monochromator with a Xenon arc lamp as excitation source. Singlet oxygen generation was specifically detected at 1270 nm and the emission was monitored by using liquid nitrogen-cooled germanium-detector (EO-817P, North Coast Scientific, North Ridgeville, OH, USA). A solution of rose Bengal in ethanol was used as the reference, ΦΔ(ref) = 0.68 [25]. The singlet oxygen quantum yield was then determined using Equation (3): (3) ϕΔ=ϕΔ(ref)×I/Iref×Aref/A where A and Aref are the UV visible absorbance at 415 nm of the sample and rose Bengal (the reference), respectively, while I and Iref are the peak intensities of luminescence at 1270 nm of the sample and rose Bengal, respectively.
# [3] = biological target: T1, recombinant NRP-1 protein (Homo sapiens, UniProt O14786); details: cited from earlier work
# HUVEC = tested on: HUVEC; set-up: method as in PMID 17283031; details: cited from earlier work; for Light doses 50 values: red light
# [4] = biological target: T1, recombinant NRP-1 protein; experiment: Competitive binding ELISA, displacement of biotinylated VEGF165
# Protocol: The molecular affinity of the different TPC–peptide conjugates for recombinant NRP-1 protein was estimated through a competitive binding test using biotinylated VEGF165 to NRP-1 receptor recognition recombinant. As biotinylated VEGF165 binding to this receptor is heparin dependent, the competitive binding tests were performed in the presence of heparin (2 µg/mL).
# The conjugates were first dissolved in DMSO and subsequently diluted in methanol. Tween-20 was added in the blocking buffer to assist in the solubilization of the conjugate. The samples were prepared in ten different concentrations ranging from 3 to 960 µM.
# [5] = cited from earlier work
# [6] = In vivo plasma concentration by HPLC after intravenous injection; details: mice, 2.8 mg/kg i.v., sampled at 1, 4 and 24 h
# Protocol: The in vivo stability study was carried out with only two of the novel conjugates synthesized; TPC–PEG18–DKPPR and TPC–PEG18–TKPRR were selected because of to their interesting hydrophilicity properties. We selected TPC–Ahx–ATWLPPR conjugate as a reference based on our previous studies. Blood and tissue samples were weighed and kept at −80 °C in polypropylene tubes, until further processing. Extraction of the conjugates from the tissues required first a solubilization step, using TEM buffer (10 mM Tris, 1.66 mM EDTA, 5 mM molybdate, pH 7.4) and homogenization. […] Conjugates levels in the plasma and tissues were determined as a percentage of the injected dose per gram […] (% injected dose/g of tissue) or per milliliter plasma. […]
# The in vivo stability analyses were performed by HPLC equipped with programmable software GOLD version 1.6 (Beckman Coulter, Fullerton, CA, USA), an auto sampler injector (507e, System Gold, Beckman Coulter) and a fluorescence detector (RF-10A XL, Shimadzu, Kyoto, Japan). […] Fluorescence excitation and emission wavelengths were detected at 416 and 652 nm, respectively. […] The conjugate levels in plasma and organs were determined from the peak areas and normalized based on standard calibration curves constructed earlier. The data were calculated as the mean value of three mice.
# [7] = In vivo stability in plasma by MALDI-TOF MS; details: 24 h after administration, mice
# Protocol: Female athymic Swiss nude/nude mice (7–9 weeks, weight range 20–25 g) were obtained from Harlan (Gannat, France). The in vivo study we conducted was based on the results obtained from the ELISA test conducted earlier. The conjugates of TPC–Ahx–ATWLPPR, TPC–PEG18–DKPPR and TPC–PEG18–TKPRR (2.8 mg/kg) were injected intravenously via the tail vein in ethanol–PEG 400–water (2:3:5, v/v/v). The mice were kept in the dark after the injection. After 1, 4 and 24 h, blood samples were collected and plasma was separated from the blood. The mice were sacrificed and tissues were carefully excised. All samples were kept in the dark at −80 °C in polypropylene tubes until further analysis.
# MALDI-TOF MS analyses were carried out on a Bruker Reflex IV time-of-flight mass spectrometer (Bruker-Daltonic, Bremen, Germany) equipped with the SCOUT 384 probe ion source fitted with a nitrogen pulsed laser (337 nm, VSD-337ND model, Laser Science Inc., Boston, MA, USA). The laser output energy was 400 μJ/pulse. Positives ions were accelerated with a 200 ns extraction delay. The reflector voltage was 23 kV. […]
# MALDI-TOF MS analyses were performed using 2,5-dihydroxybenzoic acid (DHB) (Sigma-Aldrich, Saint-Quentin-Fallavier, France) as the matrix. […] All samples were analyzed in duplicate.
# [8] = set-up: method as in PMID 17283031; details: cited from earlier work
# T1 sequence (O14786 22-923): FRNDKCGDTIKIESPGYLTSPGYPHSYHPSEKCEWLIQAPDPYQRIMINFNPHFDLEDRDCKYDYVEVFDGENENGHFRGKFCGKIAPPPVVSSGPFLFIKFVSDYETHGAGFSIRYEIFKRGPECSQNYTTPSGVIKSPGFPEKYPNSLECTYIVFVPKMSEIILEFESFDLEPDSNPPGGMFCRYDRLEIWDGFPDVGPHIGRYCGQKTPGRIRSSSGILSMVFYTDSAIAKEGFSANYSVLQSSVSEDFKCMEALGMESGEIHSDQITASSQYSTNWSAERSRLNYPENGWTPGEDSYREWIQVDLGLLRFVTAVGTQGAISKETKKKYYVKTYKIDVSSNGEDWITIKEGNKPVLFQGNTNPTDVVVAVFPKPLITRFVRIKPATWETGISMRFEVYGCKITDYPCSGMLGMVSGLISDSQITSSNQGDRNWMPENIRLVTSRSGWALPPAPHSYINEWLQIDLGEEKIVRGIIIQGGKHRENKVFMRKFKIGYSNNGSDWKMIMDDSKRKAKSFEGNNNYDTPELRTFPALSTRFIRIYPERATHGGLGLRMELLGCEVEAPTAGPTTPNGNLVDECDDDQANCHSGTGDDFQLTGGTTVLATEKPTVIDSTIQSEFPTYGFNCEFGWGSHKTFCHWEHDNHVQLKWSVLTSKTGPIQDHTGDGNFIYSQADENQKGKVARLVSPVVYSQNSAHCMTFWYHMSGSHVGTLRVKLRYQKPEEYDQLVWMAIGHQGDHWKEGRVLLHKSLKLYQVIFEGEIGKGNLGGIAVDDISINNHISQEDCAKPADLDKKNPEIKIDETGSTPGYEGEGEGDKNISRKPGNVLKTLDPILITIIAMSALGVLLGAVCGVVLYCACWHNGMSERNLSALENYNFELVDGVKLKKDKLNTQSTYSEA
compound,measurement,setting,value
"O=C(O)c1ccc(-c2c3nc(c(-c4ccccc4)c4ccc([nH]4)c(-c4ccccc4)c4nc(c(-c5ccccc5)c5ccc2[nH]5)CC4)C=C3)cc1 [TPC, 5-(4-carboxyphenyl)-10,15,20-triphenyl chlorin]",logD,"[1]; n = 6, read-out: Shake Flask Method Distribution Coefficient, D (log D pH7.4)",2.61 ± 0.2
same,Molar Extinction Coefficient Soret ε415,[2],76000 L·M^−1·cm^−1
same,Molar Extinction Coefficient QIV ε516,[2],8000 L·M^−1·cm^−1
same,Molar Extinction Coefficient QIII ε543,[2],5000 L·M^−1·cm^−1
same,Molar Extinction Coefficient QII ε598,[2],4000 L·M^−1·cm^−1
same,Molar Extinction Coefficient QI ε650,[2],12000 L·M^−1·cm^−1
same,Fluorescence quantum yield Φf,[2],0.18
same,Singlet oxygen quantum yield Φ∆,[2],0.47
same,Displacement of the binding of VEGF165,[3],failed to do so
same,Light doses 50 values,HUVEC,4.9 ± 0.64 J/cm^2
same,Displacement of biotinylated VEGF165 binding onto NRP-1 protein,[4]; heparin 2 µg/mL,failed to displace; also recorded: did not show any significant binding at all
C1=Cc2nc1c(-c1ccccc1)c1ccc([nH]1)c(-c1ccccc1)c1nc(c(-c3ccccc3)c3ccc([nH]3)c2-c2ccccc2)C=C1 [TPP],Fluorescence quantum yield of standard reference Φf(ref),[5]; in toluene,0.11
O=C([O-])c1c(Cl)c(Cl)c(Cl)c(Cl)c1-c1c2cc(I)c(=O)c(I)c-2oc2c(I)c([O-])c(I)cc12.[Na+].[Na+] [rose Bengal],Singlet oxygen quantum yield of standard reference ΦΔ(ref),[5]; in ethanol,0.68
DKPPR [DKPPR],IC50,[4],1000 nM
TKPPR,Displacement of the binding of VEGF165 to recombinant NRP-1 (ELISA),[3]; free peptides,able to displace the binding of VEGF165
TKPRR [TKPRR],IC50,[4],1000 nM
TPC–Ahx–ATWLPPR: TPC coupled via 6-aminohexanoic acid spacer to peptide ATWLPPR; group's earlier NRP-1 targeting conjugate ({TPC-Ahx}-ATWLPPR; reading uncertain; also: printed as TPC–Ahx–ATWLPPR),"Shake Flask Method Distribution Coefficient, D (log D pH7.4)",[1]; n = 6,2.61 ± 0.2
same,Molar Extinction Coefficient Soret ε415,[2],74000 L·M^−1·cm^−1
same,Molar Extinction Coefficient QIV ε516,[2],6800 L·M^−1·cm^−1
same,Molar Extinction Coefficient QIII ε543,[2],4900 L·M^−1·cm^−1
same,Molar Extinction Coefficient QII ε598,[2],2600 L·M^−1·cm^−1
same,Molar Extinction Coefficient QI ε650,[2],12000 L·M^−1·cm^−1
same,Fluorescence quantum yield Φf,[2],0.18
same,Singlet oxygen quantum yield Φ∆,[2],0.39
same,Time up to which conjugate is found in plasma after intravenous injection,[6],up to 24 h
same,MS signal of peak m/z 616 (attributed to the TPC moiety) in plasma,[7],not detected
same,Displacement of the binding of VEGF165,[3],managed to displace the binding of VEGF165
same,IC50,"[3]; read-out: IC50, displacement of VEGF165 binding to NRP-1",171000 nM
same,Time for which conjugate could be detected in the plasma,[8],≥ 48 h
same,Enhancement of photodynamic activity versus TPC,HUVEC,10.4 fold
same,Light doses 50 values,HUVEC,0.47 ± 0.23 J/cm^2
